Measured values from publication PMC7767506, “Synthesis and Characterization of Store-Operated Calcium Entry Inhibitors Active in the Submicromolar Range” (International Journal of Molecular Sciences, 2020).
Like-named read-outs stand apart in the source and are kept apart here.

How the values were obtained:
Jurkat cell SOCE [1] = experiment: Thapsigargin-induced SOCE in Jurkat cells, Indo-1 [Ca2+]cyt measurement; assay type: cell-based, human; details: for Ki: 1 µM thapsigargin 10 min, compound added 30 s prior to 1 mM CaCl2
Description: To visualize SOCE, we performed a classical protocol: Jurkat cells in Ca^2+-free HBS medium are stimulated by 1 µM thapsigargin (TG, black arrow, Figure 2A) during 600 s to allow the release of Ca^2+ ions by the ER, and the subsequent opening of the store-operated Ca^2+ channels (SOCC). Addition of 1 mM CaCl2 allowed for a massive entry of Ca^2+ ions through SOCC leading thus to an increase of the cytosolic calcium concentration ([Ca^2+]cyt). To test 2-APB and its analogues, different concentrations of compounds were added 30 s prior to Ca^2+ addition.
[Ca^2+]cyt was recorded by a fluorimetric ratio technique as previously described. Leukocytes were spun and resuspended at a density of 10^6 cells/mL in Hepes buffered saline (HBS; 135 mM NaCl, 5.9 mM KCl, 1.2 mM MgCl2, 11.6 mM Hepes, 11.5 mM glucose adjusted to pH 7.3 with NaOH). Due to the presence of 0.002% Ca^2+ in the NaCl, this HBS medium contained 0.1 mM of Ca^2+. Then, cells were incubated in the dark with 4 μM Indo-1-AM for one hour at room temperature under slow agitation. Cells were then centrifuged and resuspended in HBS medium before measurement. To perform the experiments, 0.5 to 1 × 10^6 cells were suspended in 2 mL HBS in a quartz cuvette and inserted into a spectrofluorophotometer (RF-1501 Shimadzu Corporation, Kyoto, Japan) connected to a PC computer (Dell Computer Corp., Montpellier, France). A temperature of 37°C was maintained by circulating water from a bath. Ultraviolet light of 360 nm was used for excitation of Indo-1, and emissions at 405 and 480 nm were recorded. Background and autofluorescence of the cell suspension were subtracted from the recordings. The maximum Indo-1 fluorescence (Rmax) was obtained by adding 1 µM ionomycin to the cell suspension in the presence of 10 mM extracellular CaCl2. Minimum fluorescence was determined following the depletion of external Ca^2+ with 5 mM EGTA.
To visualize the SOCE, cells were placed into the quartz cuvette and 0.5 EGTA was added just before the beginning of the recordings. To induce the SOCE, the cells were treated with 1 μM thapsigargin (TG) during 10 min in Ca^2+-free HBS to induce Ca^2+ release from the ER and the opening of SOCE channels. Then, 1 mM CaCl2 was added to measure the change in [Ca^2+]cyt subsequently to Ca^2+ influx. In the dose-response experiments, different concentrations of 2-APB and its analogs were added 30 s prior to Ca^2+ readdition.

Jurkat cell SOCE [2] = details: leukocyte SOCE; cited from earlier work
SERCA = SERCA (Mus musculus, UniProt O55143); experiment: SERCA-mediated 45Ca2+ store loading in permeabilized L15 fibroblasts; assay type: cell-based; details: 100 µM; read-out: change of SERCA activity
Description: (§1) Measurements of SERCA-mediated ^45Ca^2+ store loading and IP3-dependent release from the ER Ca^2+ store were performed on permeabilized cells in unidirectional conditions. As this approach required the use of cells forming strongly adherent monolayers, we used L15 fibroblasts stably overexpressing IP3R1, similarly to our previous work.
(§2) The L15 fibroblasts stably overexpressing IP3R1 were seeded in gelatin-coated 12-well plates (Greiner, Frickenhausen, Germany) at a density of 60,000 cells per well. Unidirectional ^45Ca^2+ flux experiments on confluent cell monolayers were performed at 30 °C after membrane permeabilization with saponin (40 µg/mL), exactly as previously described. After permeabilization, the non-mitochondrial Ca^2+ stores were loaded for 45 min in 120 mM KCl, 30 mM imidazole–HCl (pH 6.8), 5 mM MgCl2, 5 mM ATP, 0.44 mM EGTA, 10 mM NaN3, and 150 nM free ^45Ca^2+ (28 µCi mL^−1). Subsequently, efflux was initiated by incubation in efflux medium (120 mM KCl, 1 mM EGTA, 10 µM TG and 30 mM imidazole–HCl pH 6.8). The latter medium was replaced every two minutes for 18 minutes. The exact amount of Ca^2+ at each time point is calculated by summing in retrograde order the amount of radioactivity remaining in the cells at the end of the efflux and the radioactivity collected during the successive time intervals. This allows to calculate the steady-state content of the ER Ca^2+ stores (indicative for the SERCA activity, after subtraction of the loading achieved in the presence of 2 µM TG) the basal leak rate of Ca^2+ out of the stores and the IP3-induced Ca^2+ release after addition of IP3 (0.7 µM). These various parameters were measured both in control conditions or in the presence of various 2-APB analogs as indicated. To assess the effect of the 2-APB analogs on the SERCA-mediated loading of the ER Ca^2+ stores, the analogs were added during the ^45Ca^2+-loading phase as described previously. Obviously, compounds that strongly stimulated the basal Ca^2+ leak out of the stores (as P8) could not be investigated for their effect on SERCA activity (as Ca^2+ loading was already compromised by the increased leak) or on IP3-induced Ca^2+ release (as the decreased luminal Ca^2+ level impacted both the driving force for Ca^2+ release and the sensitivity of the IP3R).

IP3R1 = target: T1, IP3R1 (Mus musculus, UniProt P11881); experiment: IP3-induced Ca2+ release (IICR) in permeabilized L15 fibroblasts overexpressing IP3R1; assay type: cell-based; details: permeabilized L15 fibroblasts
T1 construct: expressed in transfected cells; host or cells: L15 fibroblast cell line (gift of Katsuhiko Mikoshiba), saponin-permeabilized
Description: as §1
as §2, with “Obviously, compounds that strongly stimulated the basal Ca^2+ leak out of the stores (as P8) could not be investigated for their effect on SERCA activity (as Ca^2+ loading was already compromised by the increased leak) or on IP3-induced Ca^2+ release (as the decreased luminal Ca^2+ level impacted both the driving force for Ca^2+ release and the sensitivity of the IP3R).” left out

[3] = test system: ER Ca2+ stores of L15 fibroblasts; experiment: Basal Ca2+ leak from ER stores, unidirectional 45Ca2+ flux in permeabilized L15 fibroblasts; assay type: cell-based
Description: as §1
The L15 fibroblasts stably overexpressing IP3R1 were seeded in gelatin-coated 12-well plates (Greiner, Frickenhausen, Germany) at a density of 60,000 cells per well. Unidirectional ^45Ca^2+ flux experiments on confluent cell monolayers were performed at 30 °C after membrane permeabilization with saponin (40 µg/mL), exactly as previously described. After permeabilization, the non-mitochondrial Ca^2+ stores were loaded for 45 min in 120 mM KCl, 30 mM imidazole–HCl (pH 6.8), 5 mM MgCl2, 5 mM ATP, 0.44 mM EGTA, 10 mM NaN3, and 150 nM free ^45Ca^2+ (28 µCi mL^−1). Subsequently, efflux was initiated by incubation in efflux medium (120 mM KCl, 1 mM EGTA, 10 µM TG and 30 mM imidazole–HCl pH 6.8). […] The exact amount of Ca^2+ at each time point is calculated by summing in retrograde order the amount of radioactivity remaining in the cells at the end of the efflux and the radioactivity collected during the successive time intervals. […] These various parameters were measured both in control conditions or in the presence of various 2-APB analogs as indicated. […]

[4] = Jurkat cells, read-out: Ki (nM), inhibition constant on SOCE
[5] = Jurkat cells, read-out: Ki (µM), inhibition constant on SOCE

Sequence of SERCA (O55143 whole entry): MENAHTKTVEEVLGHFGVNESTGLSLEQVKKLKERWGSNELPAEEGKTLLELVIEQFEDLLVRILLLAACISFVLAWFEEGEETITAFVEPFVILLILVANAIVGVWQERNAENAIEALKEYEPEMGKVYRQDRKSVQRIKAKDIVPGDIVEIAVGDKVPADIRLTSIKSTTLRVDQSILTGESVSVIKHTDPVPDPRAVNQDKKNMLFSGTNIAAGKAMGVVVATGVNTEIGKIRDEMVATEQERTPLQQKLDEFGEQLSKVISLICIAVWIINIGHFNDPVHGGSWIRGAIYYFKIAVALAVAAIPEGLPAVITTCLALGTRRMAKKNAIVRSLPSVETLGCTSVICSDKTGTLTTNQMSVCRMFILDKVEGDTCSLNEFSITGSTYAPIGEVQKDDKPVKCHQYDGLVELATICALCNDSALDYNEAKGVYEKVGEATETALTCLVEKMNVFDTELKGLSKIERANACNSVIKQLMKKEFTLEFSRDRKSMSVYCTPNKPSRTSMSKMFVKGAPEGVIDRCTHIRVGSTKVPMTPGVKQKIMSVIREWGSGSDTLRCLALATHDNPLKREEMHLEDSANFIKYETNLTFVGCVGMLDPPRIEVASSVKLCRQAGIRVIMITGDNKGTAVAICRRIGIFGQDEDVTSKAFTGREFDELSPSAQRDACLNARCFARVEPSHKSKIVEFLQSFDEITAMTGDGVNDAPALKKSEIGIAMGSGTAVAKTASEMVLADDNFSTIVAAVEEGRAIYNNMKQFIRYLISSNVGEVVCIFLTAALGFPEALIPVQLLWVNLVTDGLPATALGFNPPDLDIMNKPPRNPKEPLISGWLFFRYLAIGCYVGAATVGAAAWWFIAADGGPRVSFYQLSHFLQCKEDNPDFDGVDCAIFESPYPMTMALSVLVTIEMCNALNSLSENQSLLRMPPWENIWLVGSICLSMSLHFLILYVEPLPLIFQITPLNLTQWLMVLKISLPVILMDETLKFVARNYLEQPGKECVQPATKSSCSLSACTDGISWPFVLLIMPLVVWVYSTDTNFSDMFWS
T1 sequence (P11881 whole entry): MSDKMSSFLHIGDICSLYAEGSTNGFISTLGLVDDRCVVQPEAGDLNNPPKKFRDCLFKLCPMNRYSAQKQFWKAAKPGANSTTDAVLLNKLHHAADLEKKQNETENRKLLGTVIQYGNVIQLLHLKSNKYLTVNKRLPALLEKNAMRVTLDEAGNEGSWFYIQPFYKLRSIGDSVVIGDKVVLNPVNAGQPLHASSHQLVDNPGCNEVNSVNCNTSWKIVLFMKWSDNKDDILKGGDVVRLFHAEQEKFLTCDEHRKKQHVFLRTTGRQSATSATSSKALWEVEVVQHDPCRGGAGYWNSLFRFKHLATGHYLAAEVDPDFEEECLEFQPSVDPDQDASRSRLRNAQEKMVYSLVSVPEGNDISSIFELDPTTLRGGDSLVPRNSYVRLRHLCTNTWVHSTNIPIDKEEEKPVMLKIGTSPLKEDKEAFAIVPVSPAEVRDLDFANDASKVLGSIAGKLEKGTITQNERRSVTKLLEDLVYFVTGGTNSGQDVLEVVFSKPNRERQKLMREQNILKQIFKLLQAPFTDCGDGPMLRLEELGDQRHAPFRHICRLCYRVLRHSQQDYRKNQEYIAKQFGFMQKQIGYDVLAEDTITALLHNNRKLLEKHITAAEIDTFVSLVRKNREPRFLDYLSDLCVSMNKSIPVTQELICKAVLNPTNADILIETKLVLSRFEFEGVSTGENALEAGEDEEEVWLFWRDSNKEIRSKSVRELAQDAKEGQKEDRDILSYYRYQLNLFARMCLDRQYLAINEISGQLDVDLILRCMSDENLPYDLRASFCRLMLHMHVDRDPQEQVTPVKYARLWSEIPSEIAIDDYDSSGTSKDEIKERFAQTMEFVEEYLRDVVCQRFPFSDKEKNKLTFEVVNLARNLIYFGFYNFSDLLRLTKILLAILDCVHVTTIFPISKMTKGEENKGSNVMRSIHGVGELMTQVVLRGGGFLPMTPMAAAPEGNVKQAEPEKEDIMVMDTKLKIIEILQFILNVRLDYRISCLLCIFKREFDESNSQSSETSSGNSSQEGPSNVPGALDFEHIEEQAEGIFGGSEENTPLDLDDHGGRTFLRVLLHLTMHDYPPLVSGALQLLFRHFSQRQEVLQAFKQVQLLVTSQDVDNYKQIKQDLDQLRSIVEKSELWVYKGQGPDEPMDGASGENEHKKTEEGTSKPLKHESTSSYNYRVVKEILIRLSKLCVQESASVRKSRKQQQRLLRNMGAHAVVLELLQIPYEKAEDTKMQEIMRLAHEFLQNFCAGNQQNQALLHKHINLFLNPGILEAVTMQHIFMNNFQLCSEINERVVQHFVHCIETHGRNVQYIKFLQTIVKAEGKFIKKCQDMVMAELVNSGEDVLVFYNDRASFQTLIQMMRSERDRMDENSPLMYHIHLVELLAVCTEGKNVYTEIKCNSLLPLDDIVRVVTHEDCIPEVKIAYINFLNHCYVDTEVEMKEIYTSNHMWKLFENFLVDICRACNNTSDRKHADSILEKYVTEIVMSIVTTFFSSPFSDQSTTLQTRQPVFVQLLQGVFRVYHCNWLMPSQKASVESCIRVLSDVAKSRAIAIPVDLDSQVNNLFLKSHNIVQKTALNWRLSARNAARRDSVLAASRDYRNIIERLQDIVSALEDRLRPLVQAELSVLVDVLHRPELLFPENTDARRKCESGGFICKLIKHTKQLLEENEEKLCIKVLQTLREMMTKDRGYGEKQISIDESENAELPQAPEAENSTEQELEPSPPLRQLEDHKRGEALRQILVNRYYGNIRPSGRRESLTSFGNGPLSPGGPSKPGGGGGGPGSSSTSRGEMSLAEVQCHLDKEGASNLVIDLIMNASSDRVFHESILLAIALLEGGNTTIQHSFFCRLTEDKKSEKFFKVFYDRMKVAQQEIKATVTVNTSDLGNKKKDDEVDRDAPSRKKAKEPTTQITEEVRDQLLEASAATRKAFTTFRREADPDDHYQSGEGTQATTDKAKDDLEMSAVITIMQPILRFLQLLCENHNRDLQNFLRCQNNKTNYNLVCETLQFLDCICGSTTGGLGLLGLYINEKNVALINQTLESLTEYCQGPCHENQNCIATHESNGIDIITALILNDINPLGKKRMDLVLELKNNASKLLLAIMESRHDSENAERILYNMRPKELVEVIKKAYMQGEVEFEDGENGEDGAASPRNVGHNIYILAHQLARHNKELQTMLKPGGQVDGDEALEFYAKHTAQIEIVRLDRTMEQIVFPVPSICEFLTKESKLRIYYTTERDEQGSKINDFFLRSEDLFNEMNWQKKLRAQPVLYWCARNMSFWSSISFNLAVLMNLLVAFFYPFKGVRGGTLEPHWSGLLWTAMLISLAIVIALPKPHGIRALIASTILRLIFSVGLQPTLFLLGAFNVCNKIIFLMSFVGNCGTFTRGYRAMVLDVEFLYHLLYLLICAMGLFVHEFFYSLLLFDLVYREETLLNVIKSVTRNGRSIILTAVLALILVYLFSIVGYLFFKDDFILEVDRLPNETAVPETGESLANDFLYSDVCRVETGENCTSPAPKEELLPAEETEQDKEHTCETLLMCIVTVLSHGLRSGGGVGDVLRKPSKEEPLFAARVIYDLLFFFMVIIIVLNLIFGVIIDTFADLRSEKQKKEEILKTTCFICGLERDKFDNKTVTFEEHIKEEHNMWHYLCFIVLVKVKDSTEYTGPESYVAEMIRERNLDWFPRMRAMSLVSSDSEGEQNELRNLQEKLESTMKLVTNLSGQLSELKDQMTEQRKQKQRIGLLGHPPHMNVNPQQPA

Molecule | Ki (Jurkat cell SOCE [1]; [4]) [nM] | Ki (Jurkat cell SOCE [1]; [5]) [nM] | other results
NCCOB(c1ccc2sccc2c1)c1ccc2sccc2c1 [P12, 2-(dibenzo[b]thiophen-5-ylboryloxy)ethanamine] | 374 ± 96 | – | –
2-((bis(3-methoxyphenyl)boryl)oxy)ethanamine [P4] | – | 75000 ± 21000 | maximal inhibition of SOCE (Jurkat cell SOCE [1]; Jurkat cells): ≈ 80%
2-((di-m-tolylboryl)oxy)ethanamine [P5] | – | 2100 ± 600 | –
2-(((4-methoxyphenyl)(p-tolyl)boryl)oxy)ethanamine [P16] | – | 3100 ± 600 | –
2-((di(naphthalen-2-yl)boryl)oxy)ethanamine [P6] | 275 ± 17 | – | –
2-((bis(3,5-dimethylphenyl)boryl)oxy)ethanamine [P10] | 484 ± 116 | ~500 | concentration of complete/full SOCE inhibition (Jurkat cell SOCE [1]; Jurkat cells): 3 µM
((diphenylboryl)oxy)ethanamine [2-APB, reference compound] | – | – | SOCE potentiation, % of control [Ca2+]cyt increase (Jurkat cell SOCE [1]; 5 µM, Jurkat cells): > 200%; SOCE inhibition (Jurkat cell SOCE [1]; 50 µM, Jurkat cells): almost total inhibition; concentration of full SOCE block (Jurkat cell SOCE [2]): 20 to 30 µM
2-((bis(3,4-dimethylphenyl)boryl)oxy)ethanamine [P7] | 751 ± 97 | – | –
Fc1ccc([B-]2(c3ccc(F)cc3)[NH2+]CCO2)cc1 [P14] | – | 5400 ± 300 | –
Clc1ccc([B-]2(c3ccc(Cl)cc3)[NH2+]CCO2)cc1 [P13] | – | 1800 ± 100 | –
CCCCc1ccc([B-]2(c3ccc(CCCC)cc3)[NH2+]CCO2)cc1 [P9] | 641 ± 103 | – | inhibition at 100 µM (SERCA): 52 ± 3%; inhibition of IP3R activity (IP3R1): did not significantly inhibit
2-((bis(4-methoxyphenyl)boryl)oxy)ethanamine [P2] | – | 3500 ± 650 | –
2-((bis(4-(tert-butyl)phenyl)boryl)oxy)ethanamine [P8] | 350 ± 40 | – | Ca2+ leak from the ER by an IP3-independent pathway [3]: strong Ca^2+ leak
CC1(C)c2ccccc2-c2ccc([B-]3(c4ccc5c(c4)C(C)(C)c4ccccc4-5)[NH2+]CCO3)cc21 [P17] | – | > 100000 | effect on SOCE amplitude (Jurkat cell SOCE [1]; concentrations >3 µM, higher concentrations disrupted the fluorescence): no effect
2-((di-p-tolylboryl)oxy)ethanamine [P3] | – | 3500 ± 600 | –
Cc1ccc([B-]2(c3ccc(C)c(Cl)c3)[NH2+]CCO2)cc1Cl [P15] | 294 ± 74 | ~300 | –
